Data reported in patent US20170037008A1, “PHENYL BENZYL ETHER DERIVATIVE AND PREPARATION METHOD AND APPLICATION THEREOF” (BEIJING ZHIBO BIO-MEDICAL TECHNOLOGY CO., LTD, priority 2013, published 2017).

Tests used:
Aβ1-42 aggregates = molecular target: T1, Aβ1-42 aggregates (Homo sapiens, UniProt P05067); experiment: In-vitro competitive binding experiments (Ki determination) with Aβ1-42 aggregates; details: for affinity with the Aβ1-42 aggregates compared with IMPY and PIB: competitive binding experiments
T1 construct: Preparing receptor Aβ1-42 proteins according to the existing method
T1 sequence (P05067 672-713 limits assumed): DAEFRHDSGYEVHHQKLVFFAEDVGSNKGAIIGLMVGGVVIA
Method: Binding reaction occurs between Aβ1-42 aggregate proteins with certain concentration and radioactive ligands [^125I] […] 4, the compounds are separated after balancing, and the inhibition constant (Ki) is calculated by determining radioactivity.
(1) Preparing 4 l of PBS (0.2M) buffer solution with pH=7.4;
(2) Preparing radioligand [^125]
(3) Preparing the compounds to be determined into 10^−3 to 10^−9 mol/L continuously diluted ethanol solution;
(4) Preparing receptor Aβ1-42 proteins according to the existing method and diluting the proteins into 30 nM water solution;
(5) Soaking a glass fiber filter membrane in PBS solution containing 0.1% (volume fraction) polyethyleneimine for 0.5 h;
(6) Respectively adding 100 μl of solution of compounds with different concentration and to be determined, 100 μl of [^125I]
(7) Oscillating and incubating for 2 h in 37° C. constant-temperature water bath;
(8) Collecting reaction liquid by using a multi-head cell collector, and washing the reaction liquid for three times by using PBS, 3 ml per time;
(9) Measuring and counting by using a γ counter; and […]

[1] = Biological distribution in bodies of normal mice; assay type: in vivo, mice (ICR); details: caudal vein injection
Text: Through in-vivo distribution experiments, pharmacokinetic features, especially initial bran intake and brain removal situations of ^18F or ^125I labeled compounds in the bodies of mice are studied. […] Data are expressed in radioactive percentage dosage per organ (% ID/organ) and radioactive percentage dosage per gram of organ (% ID/g).

| Ki (Aβ1-42 aggregates) | SMILES | other results |
| --- | --- | --- |
| 28.7 ± 8 nM | COc1ccc(OCc2ccc(I)cc2)cc1 [Compound 4, 1-iodo-4-((4-methoxyphenoxy)methyl) benzene] | affinity with the Aβ1-42 aggregates compared with IMPY and PIB (Aβ1-42 aggregates): higher than that of the known compounds IMPY and PIB |
| 154 ± 5.6 nM | COc1cccc(OCc2ccc(I)cc2)c1 [Compound 5, 1-(4-iodobenzyloxy)-3-methoxybenzene] | – |
| 6110 ± 458 nM | COc1ccccc1OCc1ccc(I)cc1 [Compound 6, 1-(4-iodobenzyloxy)-2-methoxybenzene] | – |
| 134 ± 28.1 nM | Oc1ccc(OCc2ccc(I)cc2)cc1 [Compound 7, 4-(4-iodobenzyloxy) phenol] | – |
| 456 ± 135 nM | Oc1cccc(OCc2ccc(I)cc2)c1 [Compound 8, 3-(4-iodobenzyloxy) phenol] | – |
| 3350 ± 611 nM | Oc1ccccc1OCc1ccc(I)cc1 [Compound 9, 2-(4-iodobenzyloxy) phenol] | – |
| 127 ± 18.2 nM | Fc1ccc(OCc2ccc(I)cc2)cc1 [Compound 10, 1-fluoro-4-(4-iodobenzyloxy) benzene] | – |
| 22.3 ± 2.6 nM | Clc1ccc(OCc2ccc(I)cc2)cc1 [Compound 11, 1-chloro-4-(4-iodobenzyloxy) benzene] | affinity with the Aβ1-42 aggregates compared with IMPY and PIB (Aβ1-42 aggregates): higher than that of the known compounds IMPY and PIB |
| 14.1 ± 1.2 nM | Brc1ccc(OCc2ccc(I)cc2)cc1 [Compound 12, 1-bromo-4-(4-iodobenzyloxy) benzene] | affinity with the Aβ1-42 aggregates compared with IMPY and PIB (Aβ1-42 aggregates): higher than that of the known compounds IMPY and PIB |
| 25.9 ± 2.4 nM | Ic1ccc(COc2ccc(I)cc2)cc1 [Compound 13, 1-iodo-4-(4-iodobenzyloxy) benzene] | affinity with the Aβ1-42 aggregates compared with IMPY and PIB (Aβ1-42 aggregates): higher than that of the known compounds IMPY and PIB |
| 93.9 ± 6.1 nM | Ic1ccc(COc2ccccc2)cc1 [Compound 14, 1-iodo-4-(phenoxymethyl) benzene] | – |
| 139 ± 20.9 nM | CC(C)(C)c1ccc(OCc2ccc(I)cc2)cc1 [Compound 15, 1-tert-butyl-4-(4-iodobenzyloxy) benzene] | – |
| 484 ± 53.2 nM | Nc1ccc(OCc2ccc(I)cc2)cc1 [Compound 16, 4-(4-iodobenzyloxy) aniline] | – |
| 1810 ± 189 nM | Nc1cccc(OCc2ccc(I)cc2)c1 [Compound 17, 3-(4-iodobenzyloxy) aniline] | – |
| 1220 ± 58 nM | Nc1ccccc1OCc1ccc(I)cc1 [Compound 18, 2-(4-iodobenzyloxy) aniline] | – |
| 57 ± 5.1 nM | CNc1ccc(OCc2ccc(I)cc2)cc1 [Compound 19, 4-(4-iodobenzyloxy)-N-methylaniline] | – |
| 702 ± 92.4 nM | CNc1cccc(OCc2ccc(I)cc2)c1 [Compound 20, 3-(4-iodobenzyloxy)-N-methylaniline] | – |
| > 20000 nM | CNc1ccccc1OCc1ccc(I)cc1 [Compound 21, 2-(4-iodobenzyloxy)-N-methylaniline] | – |
| 20.9 ± 1.8 nM | CN(C)c1ccc(OCc2ccc(I)cc2)cc1 [Compound 22, 4-(4-iodobenzyloxy)-N,N-dimethylaniline] | affinity with the Aβ1-42 aggregates compared with IMPY and PIB (Aβ1-42 aggregates): higher than that of the known compounds IMPY and PIB |
| 1060 ± 104 nM | CN(C)c1cccc(OCc2ccc(I)cc2)c1 [Compound 23, 3-(4-iodobenzyloxy)-N,N-dimethylaniline] | – |
| 58.5 ± 3.5 nM | COc1ccc(COc2ccc(I)cc2)cc1 [Compound 24, 1-iodo-4-(4-methoxybenzyloxy) benzene] | – |
| 627 ± 129 nM | COc1ccc(SCc2ccc(I)cc2)cc1 [Compound 25, (4-iodobenzyl) (4-methoxyphenyl) sulfane] | – |
| – | CN(C)c1ccc(-c2cn3cc([125I])ccc3n2)cc1 [[^125I]IMPY, reference compound] | Blood ([1]; 2 min): 3.85 ± 0.53 % ID/g; Brain ([1]; 2 min): 5.05 ± 0.38 % ID/g; Thyroid ([1]; 2 min): 0.12 ± 0.05 % ID/organ; Blood ([1]; 10 min): 2.81 ± 0.33 % ID/g; Brain ([1]; 10 min): 1.80 ± 0.12 % ID/g; Thyroid ([1]; 10 min): 0.09 ± 0.03 % ID/organ; Blood ([1]; 30 min): 1.50 ± 0.20 % ID/g; Brain ([1]; 30 min): 0.67 ± 0.15 % ID/g; Thyroid ([1]; 30 min): 0.22 ± 0.08 % ID/organ; Blood ([1]; 60 min): 1.03 ± 0.10 % ID/g; Brain ([1]; 60 min): 0.45 ± 0.07 % ID/g; Thyroid ([1]; 60 min): 0.30 ± 0.09 % ID/organ |
